{
  "source": "patent US20090238881A1",
  "about": "“IONOPHORE ANTIBIOTIC FORMULATIONS” (priority 2000, published 2009)",
  "key": {"[1]": {"experiment": "Solubility of monensin in propylene glycol", "format": "physicochemical", "description": "There is an indication that 50% of the monensin was found in solution in the propylene glycol.\nWe have found monopropylene glycol to be a poor solvent of monensin. While we have in NZ 272574/272940 referred to monopropylene glycol as being an antifreeze agent in which the ionophore antibiotic is sparingly soluble, we do appreciate that solubility to the extent referred to in Example 1 of EP 0,139,595 may be achieved when induced with ultrasound or heating."}, "[2]": {"settings": "cited from earlier work"}, "[3]": {"settings": "EP 0,139,595 Example 1: 250 g mycelium (10% monensin), 1250 cc propylene glycol, room temperature, 2 hours ultrasound; cited from earlier work"}},
  "data": [
    {"substance": "monensin", "values": [
      {"measurement": "solubility in monopropylene glycol", "setting": "[1]", "value": "poor solvent"},
      {"measurement": "solubility in water", "setting": "[2]", "value": "only slightly soluble in water"},
      {"measurement": "monensin found in solution in the propylene glycol", "setting": "[3]", "value": 50, "unit": "%"}
    ]}
  ]
}
